These results are taken from patent EP0812190B1 (priority 1993, dated 1995).

Like-named read-outs stand apart in the source and are kept apart here.

For experiment [1], the target named is T1, MAO-B (Rattus norvegicus, UniProt P19643).
T1 sequence (P19643 1-520): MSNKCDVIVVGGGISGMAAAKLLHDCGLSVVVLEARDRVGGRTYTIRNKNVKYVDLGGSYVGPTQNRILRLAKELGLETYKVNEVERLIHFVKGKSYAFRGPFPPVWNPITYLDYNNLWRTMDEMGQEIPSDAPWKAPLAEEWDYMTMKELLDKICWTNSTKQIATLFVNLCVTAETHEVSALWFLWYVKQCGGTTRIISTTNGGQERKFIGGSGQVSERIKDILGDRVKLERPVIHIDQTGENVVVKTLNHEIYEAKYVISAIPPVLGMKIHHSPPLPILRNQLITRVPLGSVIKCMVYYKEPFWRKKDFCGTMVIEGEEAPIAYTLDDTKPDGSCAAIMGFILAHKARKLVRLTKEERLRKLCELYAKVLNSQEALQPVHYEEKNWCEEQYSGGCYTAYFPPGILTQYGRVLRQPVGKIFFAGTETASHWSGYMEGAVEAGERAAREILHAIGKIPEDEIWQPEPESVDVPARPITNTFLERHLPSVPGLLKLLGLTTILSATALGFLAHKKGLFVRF
In words: in vivo. As to conditions: for ED50 / inhibition at 0.5 mg/kg: rat. As to the method: Groups of three rats were used for each dose level of inhibitor, and MAO activity determined in brain and liver using the general technique described above. The amount of protein in each incubation was determined using the Folin-Lowry method, and enzyme activity calculated as nmol of substrate metabolized per hour of incubation for each mg of protein. Activity of MAO in tissues from animals treated with inhibitors was expressed as a percentage of the enzyme activity in a group of control animals administered vehicle (water for oral administration, 0.9% saline for ip injection) and killed as above.

Experiment [2] deals with T1, MAO-B. The note with it: 1 mg/kg i.p. single dose; whole brain. Here is the method: Activity of MAO-B was determined in whole brain tissues as described hereinabove.
Experiment [3] concerns anoxia-induced hyperactive syndrome. As to conditions: 0.5 mg/kg/day to nursing mothers. As to the method:
Anoxia was performed on rat pups on the first post-natal day. They were placed in a glass chamber and exposed to 100% nitrogen for 25 minutes. They were resuscitated by intermittent massage softly applied to the chest and then returned to their respective mothers. Control rats received the same treatment but with air instead of nitrogen.
Locomotion was measured in 6 fully computerized cages (28 x 28 cm) by recording the number of crossings over a given period of time. Crossings of grid infrared beams at 4-cm intervals initiated electrical impulses which fed a counter.
Recordings of motor activity were made at the ages of 15 and 20 days, over a period of 15 minutes.

Experiment [4] relates to rabbit jejunum. Kind of experiment: Tyramine potentiation in rabbit jejunum preparation.
The subject of experiment [5] is guinea-pig ileum. As to conditions: bethanechol 0.8 µM; PAI HCl 20 µM.
Experiment [6] has as its system guinea-pig ileum. Kind of experiment: tissue or blood. The note with it: Cavia porcellus, read-out: Percent relaxation.

As for `C#CCN[C@@H]1CCc2ccccc21` [[R](+)PAI, R(+)-N-propargyl-1-aminoindan], the “inhibition of MAO-B in brain and liver” value in experiment [1] (dose of 1mg/kg) is recorded as “complete inhibition”. The ED50 in experiment [1] (ip, 1 h, read-out: IC-50 MAO-B I.P. BRAIN) was 0.07 mg/kg; in experiment [1] (ip, 1 h, read-out: IC-50 MAO-B I.P. LIVER), 0.06 mg/kg; in experiment [1] (po, 2 h, read-out: IC-50 MAO-B P.O. BRAIN), 0.17 mg/kg; in experiment [1] (po, 2 h, read-out: IC-50 MAO-B P.O. LIVER), 0.05 mg/kg. Besides, the inhibition at 0.5 mg/kg in experiment [1] (ip, read-out: inhibition of brain MAO-B activity) was 90%; in experiment [1] (po, read-out: inhibition of MAO-B), 80%. Moreover, the “time of maximal inhibition of MAO-B after injection” value in experiment [2] was determined as 6 h. In addition, the “numbers of crossings of infrared beam grid over 15 minutes” value in experiment [3] (Anoxia-lesioned, 15-day old rats) is given as 276 ± 186(15)a; in experiment [3] (Anoxia-lesioned, 20-day old rats), 737 ± 150 (16) c; in experiment [3] (Control, 15-day old rats) it was 254 ± 149(11)c; in experiment [3] (Control, 20-day old rats), 719 ± 110(13). Besides, the Percent relaxation is 0% in experiment [4] (PAI HCl enantiomer alone 0.2-4.0 µM); 67% in experiment [4] (tyramine 40 µM after 0.2 µM PAI HCl enantiomer); 88% in experiment [4] (tyramine 40 µM after 2 µM PAI HCl enantiomer); 85-90% in experiment [4] (tyramine 40 µM after 40 µM PAI HCl enantiomer); 25% in experiment [5]. Moreover, in experiment [6], the inhibition at 2 µM came to 0%. Moreover, in experiment [6], the inhibition at 4 µM was found to be 0%. Further, the inhibition at 10 µM in experiment [6] was 0%. Besides, in experiment [6], the inhibition at 40 µM was 37%. Further, the inhibition at 400 µM in experiment [6] amounted to 100%. Also, in experiment [6], the inhibition at 700 µM turned out to be 100%.
